For eleven compounds, inhibition and Activity results are on record in ChEMBL document CHEMBL4033666, “Synthesis and mechanistic evaluation of novel N'-benzylidene-carbohydrazide-1H-pyrazolo[3,4-b]pyridine derivatives as non-anionic antiplatelet agents” (Eur J Med Chem, 2017).

Series [1] concerns Platelet. The series can be described thus: Antiplatelet activity in human platelet rich plasma assessed as inhibition of collagen-induced platelet aggregation at 100 uM preincubated for 2 mins followed by collagen addition by turbidimetric method relative to control. Type of series: cell-based.
For series [2], the system named is Plasma. The series can be described thus: Change in prothrombin time in human plasma at 100 uM incubated for 15 mins at room temperature and 2 mins at 37 degC in presence of calcium thromboplastin. Type of series: ADME, cell-free.
Series [3] relates to Platelet. The series can be described thus: Antiplatelet activity in human platelet rich plasma assessed as inhibition of epinephrine-induced platelet aggregation at 100 uM preincubated for 2 mins followed by epinephrine addition by turbidimetric method relative to control. The format is cell-based.
Series [4] concerns Platelet. The experiment in a line: Antiplatelet activity in human platelet rich plasma assessed as inhibition of arachidonic acid-induced platelet aggregation at 100 uM preincubated for 2 mins followed by arachidonic acid addition by turbidimetric method relative to control. Type of series: functional.
Series [5] has as its system Plasma. The experiment in a line: Change in activated partial thromboplastin time in human plasma at 100 uM incubated for 15 mins at room temperature and 2 mins at 37 degC in presence of CaCl2. Type of series: ADME, cell-free.
The test system of series [6] is Platelet. The experiment in a line: Antiplatelet activity in human platelet rich plasma assessed as inhibition of ADP-induced platelet aggregation at 100 uM preincubated for 2 mins followed by ADP addition by turbidimetric method relative to control. The format is cell-based.

For `Cc1nn(-c2ccccc2)c2nc(C(F)(F)F)cc(C(=O)N/N=C/c3ccc(F)cc3)c12`, the inhibition at 100 µM in the series on Platelet [1] is 0.3%; in the series on Platelet [3] it was 0%; in the series on Platelet [4], 0%; with Platelet [6], 7.95%. Besides, the Activity entry in the series on Plasma [2] and with Plasma [5] was “Non-Toxic” throughout.
Turning to `Cc1nn(-c2ccccc2)c2nc(C(F)(F)F)cc(C(=O)N/N=C/c3ccc(Cl)cc3)c12`, the inhibition at 100 µM was 0% in the series on Platelet [1], 17% in the series on Platelet [3], 6.71% with Platelet [4] and 10.1% in the series on Platelet [6]. For the same compound, the Activity entry in the series on Plasma [2] and in the series on Plasma [5] was “Non-Toxic” throughout.
For the compound `CCOc1ccc(/C=N/NC(=O)c2cc(C)nc3c2c(C)nn3-c2ccccc2)cc1`, the inhibition at 100 µM in the series on Platelet [1] was 0%; in the series with Platelet [3], 0%; with Platelet [4], 1.26%; with Platelet [6], 1.69%. In addition, the Activity entry in the series with Plasma [2] and with Plasma [5] was “Non-Toxic” in each case.
Turning to `COc1ccc(/C=N/NC(=O)c2cc(C)nc3c2c(C)nn3-c2ccccc2)cc1`, the inhibition at 100 µM in the series with Platelet [1] stood at 15%; with Platelet [3] it was 8.4%; in the series on Platelet [4], 3.43%; in the series on Platelet [6], 2.9%. In addition, the Activity entry in the series on Plasma [2] and with Plasma [5] was “Non-Toxic” each time.
For `Cc1cc(C(=O)N/N=C/c2ccccc2)c2c(C)nn(-c3ccccc3)c2n1`, the inhibition at 100 µM with Platelet [1] was found to be 9.6%; with Platelet [3] it was 7%; with Platelet [4] it was 3.96%; with Platelet [6], 0%. Besides, the Activity entry in the series with Plasma [2] and in the series on Plasma [5] was “Non-Toxic” each time.
Take `Cc1nn(-c2ccccc2)c2nc(C(F)(F)F)cc(C(=O)N/N=C/c3ccc(C#N)cc3)c12`: the inhibition at 100 µM with Platelet [1] was found to be 3.59%; with Platelet [3], 0%; with Platelet [4] it was 4.77%; in the series on Platelet [6], 4.55%. Further, the Activity entry in the series on Plasma [2] and with Plasma [5] was “Non-Toxic” throughout.
For the compound `Cc1ccc(/C=N/NC(=O)c2cc(C(F)(F)F)nc3c2c(C)nn3-c2ccccc2)cc1`, the inhibition at 100 µM was determined as 7.84% in the series on Platelet [1], 0.71% in the series with Platelet [3], 0.27% with Platelet [4] and 0.27% in the series with Platelet [6]. The Activity entry in the series on Plasma [2] and in the series with Plasma [5] was “Non-Toxic” throughout.
Take `Cc1nn(-c2ccccc2)c2nc(C(F)(F)F)cc(C(=O)N/N=C/c3ccc([N+](=O)[O-])cc3)c12`: the inhibition at 100 µM in the series on Platelet [1] came to 0%; in the series with Platelet [3] it was 0%; in the series with Platelet [4], 0%; in the series on Platelet [6], 6.93%. The Activity result with Plasma [2] and with Plasma [5] was “Non-Toxic” each time.
For the compound `Cc1nn(-c2ccccc2)c2nc(C(F)(F)F)cc(C(=O)N/N=C/c3ccc(Br)cc3)c12`, the inhibition at 100 µM with Platelet [1] was 5.37%; in the series with Platelet [3], 1.52%; in the series on Platelet [4] it was 6.18%; in the series on Platelet [6], 7.46%. The Activity entry with Plasma [2] and in the series on Plasma [5] was “Non-Toxic” in each case.
On to `COc1ccc(/C=N/NC(=O)c2cc(C(F)(F)F)nc3c2c(C)nn3-c2ccccc2)cc1`, for which the inhibition at 100 µM in the series on Platelet [1] amounted to 0%; in the series on Platelet [3], 0%; with Platelet [4] it was 2.39%; with Platelet [6], 0%. For the same compound, the Activity result in the series on Plasma [2] and in the series on Plasma [5] was “Non-Toxic” each time.
For `Cc1cc(C(=O)N/N=C/c2ccc(C#N)cc2)c2c(C)nn(-c3ccccc3)c2n1`, the inhibition at 100 µM came to 1.68% in the series on Platelet [1], 0% in the series with Platelet [3], 24.4% in the series on Platelet [4] and 33.6% in the series with Platelet [6]. The Activity result in the series with Plasma [2] and in the series on Plasma [5] was “Non-Toxic” in each case.

One may read the inhibition as the share of the control response that was lost under treatment.
